Data: patent publication US6723710B2, “Compositions for inhibiting arginase activity” (The Trustees of the University of Pennsylvania, priority 1997, dated 2004)
Several values for one entry are separate records, joined by “and”; a condition that tells them apart may be missing. Identical values can stand only once. Entries after “also recorded” stand apart in the source; their conditions may differ. Like-named read-outs stand apart in the source and are kept apart here.

Key:
[1] = molecular target: arginase; conditions: read-out: Ki previously reported; cited from earlier work
[2] = molecular target: T1, rat liver arginase (Rattus norvegicus, UniProt P07824); experiment: continuous chromogenic arginase assay with substrate 1-nitro-3-guanidinobenzene (compound 18); assay type: biochemical; parameters: made in house; conditions: for tnpseudo (moles of inhibitor/mole of arginase): 2 millimolar compound 18 as substrate, pseudo-turnover number, smaller = better inhibition
T1 sequence (P07824 1-323): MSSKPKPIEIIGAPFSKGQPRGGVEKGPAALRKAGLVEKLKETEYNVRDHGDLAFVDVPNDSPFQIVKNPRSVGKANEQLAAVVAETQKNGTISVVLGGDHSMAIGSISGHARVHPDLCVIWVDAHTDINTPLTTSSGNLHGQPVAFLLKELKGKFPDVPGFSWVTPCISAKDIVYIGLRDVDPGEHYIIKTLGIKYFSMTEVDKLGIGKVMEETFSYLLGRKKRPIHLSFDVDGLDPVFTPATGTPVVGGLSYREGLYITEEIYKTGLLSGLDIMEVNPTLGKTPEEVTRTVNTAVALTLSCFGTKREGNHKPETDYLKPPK
Method: The activity of wild-type arginase was monitored spectrophotometrically using a Pharmacia BIOTECH ULTROSPEC™ 2000. Assays were performed in a solution comprising 100 micromolar MnCl2 and 50 millimolar bicine-NaOH (pH 9.0). […] Eadie-Hofstee plots were used to analyze the data.

[3] = system: internal anal sphincter (IAS) smooth muscle; experiment: NANC nerve-mediated relaxation of IAS smooth muscle strips by electrical field stimulation; parameters: species or system opossum (Didelphis virginiana); conditions: for reversal of L-NNA-suppressed IAS relaxation: with L-NNA, L-HO-Arg and ABHA 3×10^−4 molar; for decrease in IAS tension after L-HO-Arg: 3×10^−4 molar
Excerpt: The entire anal canal was isolated carefully by dissection and transferred to a dissecting tray containing oxygenated (95% O2 plus 5% CO2) Krebs' solution. The composition of the Krebs' solution was as follows (in millimolar): NaCl, 118.07; KCl 4.69; […] MgSO4, 1.16; […] NaHCO3, 25 and glucose (Pufahl et al., 1995, Biochemistry 34:1930-1941; […] et al., 1993, Biochem. Biophys. Res. Commun. 196:1558-1565). The anal canal was cleaned of extraneous connective tissue and blood vessels. Following this, the anal canal was opened by making an incision along the longitudinal axis, and was pinned flat with the mucosal side facing up. The mucosa and submucosa were removed by sharp dissection. Circular smooth muscle strips were obtained from the whole circumference of the anal canal and divided into two equal strips (about 1×8 millimeters). Both ends of the muscle strips were secured with silk sutures (4-0: Ethicon Inc., Sommerville, N.J.) and used for the measurement of isometric tension. […] One end of each muscle strip was fixed to the bottom of the muscle bath with a tissue holder and the other end was attached to an isometric force transducer (model FT03; Grass Instruments Co., Quincy, Mass.) in order to measure isometric tension. Smooth muscle tension was recorded using a […] recorder (model […]; Beckman Instruments, Schiller Park, Ill.). […] J. Physiol. 255:[…]-[…]). Only those smooth muscle strips that developed spontaneous and steady tension and relaxed in response to electrical field stimulation (EFS) were used. EFS was delivered, via a pair of platinum wires, from a Grass stimulator (Model S88; Grass Instruments Co., Quincy, Mass.) connected in series to a Med-Lab […] (Med-Lab Instruments, Loveland, Colo.). […] These parameters of EFS are known to cause relaxation of IAS smooth muscle by selective activation of NANC myenteric neurons. Neurally-mediated relaxation of IAS smooth muscle strips was quantified in response to different frequencies of EFS. […] To determine the influence of arginase on NANC nerve-mediated relaxation of IAS, the effects of different doses of arginase on relaxation were first determined. […] The effectiveness of arginase inhibitors (L-OH-Arg and ABHA) on arginase-induced attenuation of EFS-induced IAS relaxation was then tested. Optimal doses of arginase and L-OH-Arg in IAS have been reported ([…] and […]. Pharmacol. Exp. Ther. 282:378-384). In order to determine the selectivity of arginase inhibitors in IAS, their effects on IAS relaxation suppressed by the NO synthase inhibitor L-NNA ([…]) were tested. […] To examine the physiological relevance of arginase inhibitors in IAS relaxation, the influence of selected concentrations of arginase inhibitors on EFS-induced IAS relaxation was examined. […] Each smooth muscle strip served as its own control. […] The results are expressed as means±standard error.

[4] = molecular target: T2, arginase (Rattus norvegicus, UniProt P07824); conditions: cited from earlier work
T2 sequence (P07824 1-323): T1 sequence (P07824 1-323)

[5] = molecular target: T1, rat liver arginase; experiment: [14C-guanidino]-arginine arginase activity assay (Example 2); assay type: biochemical; conditions: 100 millimolar CHES, pH 9.0, 1 millimolar arginine; read-out: IC50 for inhibition of arginase
Method: Arginase activity was assessed using the ^(14C-guanidino)-arginine assay of Rüegg et al. (1980, Anal. Biochem. 102:206-212), as described (Reczkowski et al., 1994, Arch. Biochem. Biophys. 312:31-37). […] […] et al., 1994, Biochem. Biophys. Res.

[6] = system: liver arginase activity; experiment: arginase activity in liver homogenate; assay type: biochemical, opossum; conditions: for potency against liver arginase activity relative to non-hepatic tissues: liver versus IAS, rectum, brain
Excerpt: (§1) Tissue samples of the opossum internal anal sphincter muscle (IAS), adjoining rectal tissue, liver, and brain were homogenized using an ULTRATURRAX™ tissue homogenizer (Tekamr, Cincinnati, Ohio) in a solution comprising 10 millimolar Tris-HCl, 150 millimolar KCl, and 25 millimolar MnCl2, at pH 7.4. The homogenates were dialyzed overnight against the same solution. Dialyzed homogenates were centrifuged to remove insoluble material and concentrated with Amicon CENTRICON™ 30 microconcentrators to yield stock protein preparations having protein concentrations of 2.4 milligrams per milliliter for IAS smooth muscle, 3.6 milligrams per milliliter for rectal smooth muscle, 3 milligrams per milliliter for brain, and 17.5 milligrams per milliliter for liver. Protein concentrations were estimated with the Pierce Coomassie Protein Reagent kit using bovine serum albumin as a standard.
(§2) Arginase activity in tissue homogenates was evaluated using the radioactive L-[guanidino^14C]arginine assay of Rüegg and Russell (1980, Anal. Biochem. 102:206-212). Assays were performed using a solution comprising 100 millimolar CHES-NaOH and 0.1 millimolar MnCl2 at pH 9.0. The reactions were initiated by addition of 5 microliters of tissue homogenate to 45 microliters of reaction mixture that contained the CHES buffer, the appropriate concentration of arginine (0.5 to 5 millimolar) and about 5.0×10^4 counts per minute of L-[guanidino-^14C]arginine. IAS, rectal muscle, and brain homogenates were incubated with the assay mixture at room temperature for one hour, and the liver sample was incubated for 5 minutes. The reactions were stopped by addition of 200 microliters of a stop solution containing 0.25 molar acetic acid, 7 molar urea, and 10 millimolar arginase at pH 4.5. Arginase has essentially no activity at the low pH of the stop solution. [^14C] Urea was separated from non-reacted L-[guanidino-^14C]arginine by treatment with 200 μl of 1:1 v/v slurry of DOWEX™ 50W-X8 in water, and quantitated by adding 200 microliters of the supernatant from the DOWEX™ treatment to 3 milliliters of LIQUISCENT™ (National Diagnostics) for liquid scintillation counting in a Beckman LS 5000CE counter. The data were analyzed using double-reciprocal plots of the initial velocity measurements; standard errors were determined by regression analysis.
(§3) Assays in the presence of the inhibitors N^ω-hydroxy-L-arginine (1 to 100 micromolar) and ABHA (0.05 to 100 micromolar) were performed as described above. The amino acid D-ornithine served as a control in these experiments, since this amino acid, unlike L-omithine, is not an inhibitor of arginase.

[7] = molecular target: IAS arginase activity; experiment: arginase activity in IAS homogenate; assay type: biochemical, opossum; conditions: IAS; read-out: IC50 for inhibition of arginase activity, IAS homogenate
Excerpt: as §1
as §2, with “The reactions were stopped by addition of 200 microliters of a stop solution containing 0.25 molar acetic acid, 7 molar urea, and 10 millimolar arginase at pH 4.5. Arginase has essentially no activity at the low pH of the stop solution. [^14C]” left out, “analysis. […]” for “analysis.”

[8] = molecular target: rectum arginase activity; experiment: arginase activity in rectum homogenate; assay type: biochemical, opossum; conditions: rectum; read-out: IC50 for inhibition of arginase activity, rectum homogenate
Excerpt: as §1, §2, §3

[9] = molecular target: brain arginase activity; experiment: arginase activity in brain homogenate; assay type: biochemical, opossum; conditions: brain; read-out: IC50 for inhibition of arginase activity, brain homogenate
Excerpt: as §1
as §2, with “The reactions were stopped by addition of 200 microliters of a stop solution containing 0.25 molar acetic acid, 7 molar urea, and 10 millimolar arginase at pH 4.5. Arginase has essentially no activity at the low pH of the stop solution. [^14C]” left out, “analysis. […]” for “analysis.”

[10] = molecular target: T1, rat liver arginase; experiment: radioactive L-[guanidino-14C]arginine arginase assay (Example 3); assay type: biochemical; parameters: made in house
Method: Assays were performed in 100 micromolar MnCl2, 100 millimolar CHES-NaOH (pH 9.0). The reactions were initiated by addition of 5 microliters of a circa 1 unit per milliliter enzyme solution to 45 microliters of reaction mixture containing CHES buffer, 1.4 millimolar L-arginine, about 5.0×10^4 counts per minute of L-[guanidino- ^14C]arginine, and variable concentrations of the appropriate inhibitor. After a 5-15 minute reaction time, 200 microliters of a stop solution containing 7 molar urea, 10 millimolar L-arginine, and 0.25 molar acetic acid (pH 4.5) was added to the reaction (arginase has essentially no activity under these conditions). [^14C]-Urea was separated from non-reacted L-[guanidino-^14 C]arginine by treatment with 200 microliters of a 1:1 (vol/vol) slurry of DOWEX™ 50 W-X8 in water, and quantitated by adding 200 microliters of the supernatant from the DOWEX™ treatment to 3 milliliters of LIQUISCINT™ (National Diagnostics) for liquid scintillation counting in a Beckman LS5000CE counter.

[11] = molecular target: T2, arginase; experiment: isothermal titration calorimetry; assay type: binding; parameters: made in house
Method: All calorimetry experiments were conducted on a MCS isothermal calorimeter from MicroCal, Inc. (Northampton, Mass.). Arginase was exhaustively dialyzed against a solution comprising 100 micromolar MnCl2 and 50 millimolar bicine-NaOH (pH 8.5). […] Prior to the titration experiment, samples were de-gassed under vacuum for 5 minutes. […] The contents of the sample cell were titrated with 30-40 aliquots (2.5 microliters each) of inhibitor (an initial 1 microliters injection was made, but not used in data analysis). After each injection, the heat change was measured and converted to the corresponding enthalpy value. The reaction mixture was continuously stirred at 400 rotations per minute during titration. Control experiments were carried out by titrating the inhibitor into the buffer solution under identical experimental conditions. Data analysis was performed using ORIGIN™ software provided with the instrument. The calorimetric data are presented with the background titrations subtracted from the experimental data. The amount of heat produced per injection was calculated by integration of the area under each peak. The data were fit to the following equation, […]

## NCCCC[C@H](NO)C(=O)O [N-hydroxylysine]
[1]
  Ki: 4 µM

## N=C(N)Nc1cccc([N+](=O)[O-])c1 [compound 18, 1-nitro-3-guanidinobenzene]
[2]; as substrate, monomer 35 kilodaltons
  kcat for arginase-catalyzed hydrolysis: 0.09±0.02 reciprocal minutes

## N[C@@H](CCCB(O)O)C(=O)O [compound 12, 2(S)-amino-5-boronopentanoic acid]
[2]
  tnpseudo (moles of inhibitor/mole of arginase): 420 ± 30 moles of inhibitor/mole of arginase
[2]; substrate 18
  fold less potent than compounds 7 and 15 (from tnpseudo): about 400 fold

## N=C(N)NCCC[C@H](N)C(=O)O [L-arginine]
[3]
  reversal of L-NNA-suppressed IAS relaxation: significant and concentration-dependent reversal
[4]; as substrate
  kcat reported: 15,000±1200 reciprocal minutes
[4]; as substrate, read-out: KM reported
  Km: 1400 ± 300 µM

## O[B-](O)(O)O [borate]
[4]; non-competitive inhibitor, read-out: KII
  Ki: 260 µM
[4]; non-competitive inhibitor, read-out: KIS
  Ki: 980 µM

## N[C@@H](CSCC[Si](O)(O)O)C(=O)O [compound 16, S-(2-trihydroxysilylethyl)-L-cysteine]
[2]; assay with substrate 18, assuming competitive inhibition
  Ki: 420 µM

## N=C(NO)NCCC[C@H](N)C(=O)O [N-hydroxyarginine, N^ω-hydroxy-L-arginine]
[5]
  IC50: 80 µM
[3]; 0.5 Hertz EFS
  decrease in IAS tension after L-HO-Arg: 57.4±4.9%
[3]; 1 Hertz EFS
  decrease in IAS tension after L-HO-Arg: 68.8±4.9%
[3]; exogenous arginase, L-HO-Arg 1×10^−4 molar
  effect on arginase-suppressed EFS-induced IAS relaxation: antagonized the effect of arginase; also recorded: reversal
[3]; lower frequencies of EFS, listed as L-HO-Arg
  augmentation of NANC nerve-mediated IAS relaxation by EFS: significant and concentration-dependent augmentation
[3]
  reversal of L-NNA-suppressed IAS relaxation: dose-dependent and complete reversal; also recorded: completely reversed
[6]; listed as L-HO-Arg
  potency against liver arginase activity relative to non-hepatic tissues: 10-20 fold
[6]; listed as N^107-hydroxy-L-arginine
  potency against liver arginase activity relative to non-hepatic tissues: about 10 fold
[6]; liver, read-out: IC50 for inhibition of arginase activity, liver homogenate
  IC50: 2.4 µM
[7]
  IC50: 25 µM
[8]
  IC50: 42 µM
[9]
  IC50: 40 µM
[1]
  Ki: 42 µM

## N=C(NO)NCC[C@H](N)C(=O)O [N-hydroxy-nor-arginine]
[1]
  Ki: 0.5 µM

## N[C@@H](CSCCB(O)O)C(=O)O [compound 15, S-(2-boronoethyl)-L-cysteine]
[2]
  tnpseudo (moles of inhibitor/mole of arginase): 1.00 ± 0.004 moles of inhibitor/mole of arginase
[10]
  Ki: 0.7 µM
[11]
  Kd: 2.22 µM
[11]; pH 8.5, 25° C.
  association constant (Ka): 4.50×10^5 inverse molar
  enthalpy change (ΔH) of binding: −12.75 kilocalories per mole
  stoichiometry (n), moles bound per mole of arginase monomer: 0.96 and 0.964

## NC(CCCCC(N)C(=O)O)=NO (centres unmarked) [N-hydroxyindospicine]
[1]
  Ki: 20 µM

## NCCC[C@H](N)C(=O)O [ornithine]
[4]; read-out: Ki
  Ki: 1000 µM
